Counter-ions that a name gives are not always drawn. Marks after values point to notes of the source that are not given here.
Columns and labels:
[1] = system: Sprague Dawley strain (SD strain) male rats; test: Conditioned place preference (CPP) method, psychic dependence induced by cocaine
[2] = system: Sprague Dawley strain (SD strain) male rats; test: Conditioned place preference (CPP) method, psychic dependence induced by morphine; settings: for Psychic dependence and aversion of compound alone (period in drug- or solvent-conditioned box): compound alone vs solvent control group
[3] = system: ddY strain male mouse; test: Naloxone-induced withdrawal syndrome in morphine-dependent mouse (physical dependence); type: in vivo; settings: for Blepharoptosis: numbers of mouse manifesting withdrawal syndrome/numbers of total mouse / Diarrhea: numbers of mouse manifesting withdrawal syndrome/numbers of total mouse / Fore paw tremor: numbers of mouse manifesting withdrawal syndrome/numbers of total mouse / Jumping: numbers of mouse manifesting withdrawal syndrome/numbers of total mouse / Rearing: numbers of mouse manifesting withdrawal syndrome/numbers of total mouse / Wobbling: numbers of mouse manifesting withdrawal syndrome/numbers of total mouse: naloxone 3 mg/kg
[4] = system: Rats; test: Cocaine drug discrimination test (feeding behavior with lever pressing); type: in vivo, rat
[5] = system: SD strain male rats; test: Mecamylamine-induced nicotine withdrawal aversion (CPP operant boxes); type: in vivo, rat
Experimental: Animals used were SD strain male rats in this experiment. Experiments used were CPP operant boxes. Experiments were performed by using an aversive model in a nicotine withdrawal syndrome induced by mecamylamine, that is, a nicotine receptor antagonist. (Tsutomu Suzuki, Molecular Medicine, 32, 140 (1995); Suzuki, T. et al., Eur. J. Pharm., 314, 281 (1996); Maldonado, R. et al., J. Pharmacol. Exp. Ther., 261, 669 (1992)). Mini-osmotic pump (Alzet 2001) injected with nicotine (1 μl/hr, for seven days) was implanted under dorsal skin of the rats. An aqueous solution at a concentration of 121.4 mg/ ml was prepared so that a nicotine dose was adjusted to 10 mg/kg/day. Then, the aqueous solution was filled into the mini-osmotic pump. The rats were given conditioning training by the following counter-balance method. In the morning of the seventh day after the implantation of the mini-osmotic pump, mecamylamine (1 mg/ml), that is, nicotine receptor antagonist or physiological saline was subcutaneously injected. Then, the rats were placed in one compartment for 60 minutes. […] The periods in which the rats remained in each compartment colored white or black were measured for 15 minutes.

[6] = system: dopamine release in the nucleus accumbens; test: High K+ stimulated dopamine release from nucleus accumbens slices (HPLC-ECD); type: cell-based; settings: rat nucleus accumbens slices, 20 mM high K+ stimulation; FIG. 11
[7] = system: rats with nicotine dependence; settings: Malin et al. 1993; cited from earlier work
[8] = system: chronic smokers; settings: for three hours, double blind and cross-over test vs placebo; Karras et al. 1980; cited from earlier work
[9] = cocaine 10 mg/kg i.p. in combination with compound 0.1 mg/kg s.c., FIGS. 5 and 6
[10] = morphine 3 mg/kg s.c. in combination with compound 0.1 mg/kg s.c., FIGS. 1 and 2
[11] = Compound 3 0.003 mg/kg s.c. with morphine
[12] = Compound 3 0.01 mg/kg s.c. with morphine
[13] = Compound 3 0.03 mg/kg s.c. with morphine

For “17-(cyclopropylmethyl)-3,14β-dihydroxy-4,5α-epoxy-6β-[N-methyl-trans-3-(methoxycinnamide) morphinan tartrate [Compound 5]”, the “Development of drug dependence induced by cocaine (period rats remained in drug-conditioned box)” value [1, 9] was “inhibited the development of drug dependence induced by cocaine” and the “Psychic dependence and aversion of compound alone (period in drug- or solvent-conditioned box)” value (“Psychic dependence and aversion” below) [1] was “did not produce psychic dependence and aversion”.
For `CN(C(=O)C#Cc1ccc(C(F)(F)F)cc1)[C@@H]1CC[C@@]2(O)[C@H]3Cc4ccc(O)c5c4[C@@]2(CCN3CC2CC2)[C@H]1O5.O=C(O)/C=C\C(=O)O` [Compound 1, 17-(cyclopropylmethyl)-3,14β-dihydroxy-4,5α-epoxy-6β-[N-methyl-3-(4-trifluoromethylphenyl)propiolamide] morphinan maleate], the “Development of drug dependence induced by cocaine (period rats remained in drug-conditioned box)” value ([1]; cocaine 4 mg/kg i.p. in combination with Compound 1 0.2 mg/kg i.p., FIG. 7) was “inhibited the development of drug dependence induced by cocaine”, the “Psychic dependence and aversion” value [1] was “did not produce psychic dependence and aversion” and the “Psychic dependence and aversion” value [2] was “did not develop psychic dependence and aversion”. The “Development of drug dependence caused by morphine (period rats remained in drug-conditioned box)” value [2, 10] was “inhibited the development of drug dependence caused by morphine”.
For `Cc1cccc(/C=C/C(=O)N(C)[C@@H]2CC[C@@]3(O)[C@H]4Cc5ccc(O)c6c5[C@@]3(CCN4CC3CC3)[C@H]2O6)c1` [Compound 2, 17-(cyclopropylmethyl)-3,14β-dihydroxy-4,5α-epoxy-6β-(N-methyl-3-methylcinnamide) morphinan hydrochloride], the “Psychic dependence and aversion” value [2] was “did not develop psychic dependence and aversion” and the “Development of drug dependence caused by morphine (period rats remained in drug-conditioned box)” value [2, 10] was “inhibited the development of drug dependence caused by morphine”.
For `CN(C(=O)/C=C/c1ccoc1)[C@@H]1CC[C@@]2(O)[C@H]3Cc4ccc(O)c5c4[C@@]2(CCN3CC2CC2)[C@H]1O5` [Compound 3, 17-(cyclopropylmethyl)-3,14β-dihydroxy-4,5α-epoxy-6β-[N-methyl-trans-3-(3-furyl)acrylamide] morphinan hydrochloride], the “Incidence rates of jumping, shaking, and diarrhea” value ([3]; 0.03 mg/kg, compared with morphine alone group) was “significantly decreased”, the “Body weight reduction (withdrawal)” value ([3]; 0.01 or 0.03 mg/kg, compared with morphine alone group, FIG. 4) was “significant suppression of body weight reduction” and the “Blepharoptosis: numbers of mouse manifesting withdrawal syndrome/numbers of total mouse” value [3, 11] was 10/10. For the same molecule, the “Diarrhea: numbers of mouse manifesting withdrawal syndrome/numbers of total mouse” value [3, 11] was 7/10, the “Fore paw tremor: numbers of mouse manifesting withdrawal syndrome/numbers of total mouse” value [3, 11] was 9/10 and the “Jumping: numbers of mouse manifesting withdrawal syndrome/numbers of total mouse” value [3, 11] was 3/10. The “Rearing: numbers of mouse manifesting withdrawal syndrome/numbers of total mouse” value [3, 11] was 10/10, the “Wobbling: numbers of mouse manifesting withdrawal syndrome/numbers of total mouse” value [3, 11] was 7/10 and the “Blepharoptosis: numbers of mouse manifesting withdrawal syndrome/numbers of total mouse” value [3, 12] was 10/10. The “Diarrhea: numbers of mouse manifesting withdrawal syndrome/numbers of total mouse” value [3, 12] was 6/10, the “Fore paw tremor: numbers of mouse manifesting withdrawal syndrome/numbers of total mouse” value [3, 12] was 10/10 and the “Jumping: numbers of mouse manifesting withdrawal syndrome/numbers of total mouse” value [3, 12] was 5/10. For the same molecule, the “Rearing: numbers of mouse manifesting withdrawal syndrome/numbers of total mouse” value [3, 12] was 7/10, the “Wobbling: numbers of mouse manifesting withdrawal syndrome/numbers of total mouse” value [3, 12] was 5/10 and the “Blepharoptosis: numbers of mouse manifesting withdrawal syndrome/numbers of total mouse” value [3, 13] was 10/10. For the same molecule, the “Diarrhea: numbers of mouse manifesting withdrawal syndrome/numbers of total mouse” value [3, 13] was 3/10*, the “Fore paw tremor: numbers of mouse manifesting withdrawal syndrome/numbers of total mouse” value [3, 13] was 7/10 and the “Jumping: numbers of mouse manifesting withdrawal syndrome/numbers of total mouse” value [3, 13] was 3/10*. For the same molecule, the “Rearing: numbers of mouse manifesting withdrawal syndrome/numbers of total mouse” value [3, 13] was 8/10, the “Wobbling: numbers of mouse manifesting withdrawal syndrome/numbers of total mouse” value [3, 13] was 3/10* and the Naloxone-induced withdrawal syndrome ([3]; simultaneous administration with morphine, 0.003-0.03 mg/kg s.c.) was “relieved by the simultaneous administration of Compound 3 in a dose-dependent manner”. For the same molecule, the “Rates of feeding behavior with lever pressing (cocaine discrimination)” value ([4]; Compound 3 10 μg/kg with cocaine 1.25, 2.5, or 5 mg/kg vs saline + cocaine, FIG. 8) was “significantly decreased”, the “Inhibitory effect of cocaine discrimination” value ([4]; Compound 3 20 μg/kg with cocaine, compared with 10 μg/kg) was “enhanced” and the “Aversive effect induced by mecamylamine (nicotine withdrawal)” value ([5]; pretreatment 30 μg/kg vs physiological saline pretreatment) was “significantly inhibited the aversive effect”. The “Aversive effect induced by mecamylamine (nicotine withdrawal)” value ([5]; pretreatment 10 or 30 μg/kg s.c., 30 minutes before mecamylamine, FIG. 10) was “inhibited by the pretreatment with Compound 3 (10 or 30 μg/kg) in a dose dependent manner”, the “Dopamine release in the nucleus accumbens” value [6] was “inhibited dopamine release in the nucleus accumbens” and the “Psychic dependence and aversion” value [2] was “did not produce psychic dependence and aversion”. For the same molecule, the “Development of drug dependence caused by morphine (period rats remained in drug-conditioned box)” value ([2]; morphine 5 mg/kg s.c. in combination with Compound 3 0.1 or 0.03 mg/kg s.c., FIG. 3) was “inhibited the development of drug dependence caused by morphine”.
For `Cc1cccc(C#CC(=O)N(C)[C@@H]2CC[C@@]3(O)[C@H]4Cc5ccc(O)c6c5[C@@]3(CCN4CC3CC3)[C@H]2O6)c1` [Compound 4, 17-(cyclopropylmethyl)-3,14β-dihydroxy-4,5α-epoxy-6β-[N-methyl-3-(3-methylphenyl)propiolamide] morphinan hydrochloride], the “Development of drug dependence induced by cocaine (period rats remained in drug-conditioned box)” value [1, 9] was “inhibited the development of drug dependence induced by cocaine” and the “Psychic dependence and aversion” value [1] was “did not produce psychic dependence and aversion”.
For `CN1CC[C@]23c4c5ccc(O)c4O[C@H]2[C@@H](O)C=C[C@H]3[C@H]1C5` [morphine, reference compound], the “Withdrawal syndrome after naloxone administration” value ([3]; morphine alone 8 to 45 mg/kg s.c. twice a day for five days, naloxone 3 mg/kg s.c.) is listed as “withdrawal syndrome was recognized” and the “Withdrawal syndrome in rats with nicotine dependence” value [7] is listed as “inhibits the withdrawal syndrome”.
For `C=CCN1CC[C@]23c4c5ccc(O)c4O[C@H]2C(=O)CC[C@@]3(O)[C@H]1C5` [naloxone], the “Intake of tobacco of chronic smokers” value [8] is given as “effective for a reduction in intake of tobacco” and the “Withdrawal syndrome in rats with nicotine dependence” value [7] is given as “accelerates a withdrawal syndrome”.
With `Oc1ccc2c3c1O[C@H]1c4[nH]c5c(c4C[C@@]4(O)[C@@H](C2)N(CC2CC2)CC[C@]314)C[C@@]1(O)[C@H]2Cc3ccc(O)c4c3[C@@]1(CCN2CC1CC1)[C@H]5O4` [nor-BNI, norbinaltorphimine, reference compound] the “Antagonism of the inhibitory effect of cocaine discrimination of Compound 3” value ([4]; nor-BNI pretreatment, Compound 3 0.02 mg/kg + cocaine, FIG. 9) was “antagonized” and the “Antagonism of the inhibitory effect caused by Compound 3” value ([2]; pretreatment 3 mg/kg, morphine 5 mg/kg s.c. + Compound 3 0.03 mg/kg s.c.) was “significantly antagonized”.

From patent publication US20010044449A1, “REMEDIES FOR DRUG ADDICTION” (priority 1997, published 2001)
